Where two headings read alike, the source gives them in different places.
Legend:
KM12 = test: Cell growth inhibition assay (Cell Titer Glo), KM12; type: cell-based; settings: Homo sapiens, 72 h; KM12 colon; KRAS/RAF WT; PTEN_K267*; single agent, 3 days, mean ± std
Excerpt: (§1) Human breast tumor line, MDA-MB-175-VII, human colon tumor lines, Colo-205, DLD-1, HCT-8, HT-29, LS-1034, NCI-H508, RKO, SW1417, SW1463, SW480, SW837 and T84, and human lung tumor lines, A427, A549, Calu 3, Calu 6, HCC827, NCI-H1155, NCI-H1355, NCI-H1792, NCI-H23, NCI-H727, SW1573 and SW900 were from ATCC. Human breast tumor line EFM-19 was from German Collection of Microorganisms and Cell Cultures. Human lung tumor line COR-L23 was from European Collection of Cell Cultures (UK). Human colon tumor line KM12 and human lung tumor line Hop62 were from National Cancer Institute. MV522 was from University of California at San Diego. All lines were cultured in RPMI 1640 medium containing 10% fetal bovine serum (FBS).
(§2) All cells were cultured for a minimum of 72 hours prior to cell plating. […] ATP levels were determined by adding Cell Titer Glo® (Promega) according to the manufacturer's protocol. Briefly, Cell Titer Glo® was added each plate, incubated for 30 minutes then luminescent signal was read on the SpectraMax L plate reader with a 0.5 sec integration time.
(§3) Inhibition of cell growth was estimated after treatment with compound or combination of compounds for three days and comparing the signal to cells treated with vehicle (DMSO). Cell growth was calculated relative to vehicle (DMSO) treated control wells. […]

Calu6 = test: Cell growth inhibition assay (Cell Titer Glo), Calu6; type: cell-based; settings: Homo sapiens, Calu-6, 72 h; Calu6 lung; KRAS_Q61K; PIK3CA/PTEN WT; single agent, 3 days, mean ± std
Excerpt: as §1, §2, §3

HCC827 = test: Cell growth inhibition assay (Cell Titer Glo), HCC827; type: cell-based; settings: Homo sapiens, 72 h; HCC827 lung; KRAS/RAF WT; PIK3CA/PTEN WT; EGFR E746_A750 deletion mutation; single agent, 3 days, mean ± std
Excerpt: as §1, §2, §3

NCI-H1355 = test: Cell growth inhibition assay (Cell Titer Glo), NCI-H1355; type: cell-based; settings: Homo sapiens, 72 h; NCI-H1355 lung; KRAS_G13C; PIK3CA/PTEN WT; single agent, 3 days, mean ± std
Excerpt: as §1, §2, §3

NCI-H727 = test: Cell growth inhibition assay (Cell Titer Glo), NCI-H727; type: cell-based; settings: Homo sapiens, 72 h; NCI-H727 lung; KRAS_G12V; PIK3CA/PTEN WT; single agent, 3 days, mean ± std
Excerpt: as §1, §2, §3

SW1463 = test: Cell growth inhibition assay (Cell Titer Glo), SW1463; type: cell-based; settings: Homo sapiens, 72 h; SW1463 colon; KRAS_G12C; PIK3CA/PTEN WT; single agent, 3 days, mean ± std
Excerpt: as §1, §2, §3

NCI-H1792 = test: Cell growth inhibition assay (Cell Titer Glo), NCI-H1792; type: cell-based; settings: Homo sapiens, 72 h; NCI-H1792 lung; KRAS_G12C; PIK3CA/PTEN WT; single agent, 3 days, mean ± std
Excerpt: as §1, §2, §3

SW480 = test: Cell growth inhibition assay (Cell Titer Glo), SW480; type: cell-based; settings: Homo sapiens, 72 h; SW480 colon; PIK3CA/PTEN WT; single agent, 3 days, mean ± std
Excerpt: as §1, §2, §3

SW1417 = test: Cell growth inhibition assay (Cell Titer Glo), SW1417; type: cell-based; settings: Homo sapiens, 72 h; SW1417 colon; BRAF_V600E; PIK3CA/PTEN WT; single agent, 3 days, mean ± std
Excerpt: as §1, §2, §3

MDA-MB-175-VII = test: Cell growth inhibition assay (Cell Titer Glo), MDA-MB-175-VII; type: cell-based, Human; settings: for IC50: Homo sapiens, 72 h, MDA-MB-175-VII breast, KRAS/RAF WT, PIK3CA/PTEN WT, single agent, 3 days, mean ± std
Excerpt: as §1
as §2, with “plating. Cells were assayed in a 96-well tissue culture plate (NUNC 136102) of RPMI medium containing 10% FBS for all cells at 1,000 cells per well.” for “plating.”
as §3
(§4) Combination effects on potency were evaluated using Combination Index (CI) which was calculated with the back-interpolated IC50 values and the mutually non-exclusive equation derived by Chou and Talalay (1): […]
(§5) The combination effects on the response scale were quantified by Excess Over Highest Single Agent (EOHSA) based on the concept of nonlinear blending as described in detail by Peterson and Novick (2007) and Peterson (2010) [(2;3) [Peterson and Novick, 2007; Peterson, 2010]. […]

Colo-205 = test: Cell growth inhibition assay (Cell Titer Glo), Colo-205; type: cell-based; settings: Homo sapiens, 72 h; Colo-205 colon; BRAF_V600E; PIK3CA/PTEN WT; single agent, 3 days, mean ± std
Excerpt: as §1, §2, §3

T84 = test: Cell growth inhibition assay (Cell Titer Glo), T84; type: cell-based; settings: Homo sapiens, 72 h; T84 colon; KRAS_G13D; PrK3CA_E542K; single agent, 3 days, mean ± std
Excerpt: as §1, §2, §3

SW1573 = test: Cell growth inhibition assay (Cell Titer Glo), SW1573; type: cell-based; settings: Homo sapiens, 72 h; SW1573 lung; KRAS_G12C; PIK3CA_K111E; single agent, 3 days, mean ± std
Excerpt: as §1, §2, §3

human colon tumor lines = test: Cell growth inhibition assay, colon lines; type: cell-based
Excerpt: as §1
as §2, with “plating. Cells were assayed in a 96-well tissue culture plate (NUNC 136102) of RPMI medium containing 10% FBS for all cells at 1,000 cells per well.” for “plating.”
as §3, §4, §5

MV522 = test: Cell growth inhibition assay (Cell Titer Glo), MV522; type: cell-based; settings: Homo sapiens, 72 h; MV522 lung; BRAF_V600E; PIK3CA/PTEN WT; single agent, 3 days, mean ± std
Excerpt: as §1, §2, §3

LS-1034 = test: Cell growth inhibition assay (Cell Titer Glo), LS-1034; type: cell-based; settings: Homo sapiens, 72 h; LS-1034 colon; KRAS_A146T; PIK3CA/PTEN WT; single agent, 3 days, mean ± std
Excerpt: as §1, §2, §3

COR-L23 = test: Cell growth inhibition assay (Cell Titer Glo), COR-L23; type: cell-based; settings: Homo sapiens, 72 h; COR-L23 lung; KRAS_G12V; PIK3CA/PTEN WT; single agent, 3 days, mean ± std
Excerpt: as §1, §2, §3

A427 = test: Cell growth inhibition assay (Cell Titer Glo), A427; type: cell-based; settings: Homo sapiens, A-427, 72 h; A427 lung; KRAS_G12D; PIK3CA/PTEN WT; single agent, 3 days, mean ± std
Excerpt: as §1, §2, §3

HCT-8 = test: Cell growth inhibition assay (Cell Titer Glo), HCT-8; type: cell-based; settings: Homo sapiens, 72 h; HCT-8 colon; KRAS_G13D; PIK3CA_E545K; single agent, 3 days, mean ± std
Excerpt: as §1, §2, §3

HT-29 = test: Cell growth inhibition assay (Cell Titer Glo), HT-29; type: cell-based; settings: Homo sapiens, 72 h; HT-29 colon; BRAF_V600E; PIK3CA_P449T; single agent, 3 days, mean ± std
Excerpt: as §1, §2, §3

EFM-19 = test: Cell growth inhibition assay (Cell Titer Glo), EFM-19; type: cell-based; settings: Homo sapiens, EFM-19, 72 h, EFM-19 breast; KRAS/RAF WT; PIK3CA_H1049L; single agent, 3 days, mean ± std
Excerpt: as §1, §2, §3

human lung tumor lines = test: Cell growth inhibition assay, lung tumor lines; type: cell-based; settings: COR-L23, A549, NCI-H1355, NCI-H1792, NCI-H23, Calu 6 and MV522, range over the lines, read-out: IC50s, single agent
Excerpt: as §1, §2, §3

HOP62 = test: Cell growth inhibition assay (Cell Titer Glo), HOP62; type: cell-based; settings: Homo sapiens, HOP-62, 72 h; HOP62 lung; KRAS_G12C; PIK3CA/PTEN WT; single agent, 3 days, mean ± std
Excerpt: as §1, §2, §3

NCI-H1155 = test: Cell growth inhibition assay (Cell Titer Glo), NCI-H1155; type: cell-based; settings: Homo sapiens, 72 h; NCI-H1155 lung; KRAS_Q61H; PTEN_R233*; single agent, 3 days, mean ± std
Excerpt: as §1, §2, §3

NCI-H508 = test: Cell growth inhibition assay (Cell Titer Glo), NCI-H508; type: cell-based; settings: Homo sapiens, 72 h; NCI-H508 colon; BRAF_G596R; PIK3CA_E545K; single agent, 3 days, mean ± std
Excerpt: as §1, §2, §3

RKO = test: Cell growth inhibition assay (Cell Titer Glo), RKO; type: cell-based; settings: Homo sapiens, 72 h; RKO colon; BRAF_V600E; PIK3CA_H1047R; single agent, 3 days, mean ± std
Excerpt: as §1, §2, §3

CaLu3 = test: Cell growth inhibition assay (Cell Titer Glo), CaLu3; type: cell-based; settings: Homo sapiens, Calu-3, 72 h; CaLu3 lung; KRAS/RAF WT; PIK3CA/PTEN WT; HER2+; single agent, 3 days, mean ± std
Excerpt: as §1, §2, §3

SW900 = test: Cell growth inhibition assay (Cell Titer Glo), SW900; type: cell-based; settings: Homo sapiens, 72 h; SW900 lung; KRAS_G12V; PIK3CA/PTEN WT; single agent, 3 days, mean ± std
Excerpt: as §1, §2, §3

DLD1 = test: Cell growth inhibition assay (Cell Titer Glo), DLD1; type: cell-based; settings: Homo sapiens, DLD-1, 72 h; DLD1 colon; KRAS_G13D; PIK3CA_E545K; single agent, 3 days, mean ± std
Excerpt: as §1, §2, §3

NCI-H23 = test: Cell growth inhibition assay (Cell Titer Glo), NCI-H23; type: cell-based; settings: Homo sapiens, 72 h; NCI-H23 lung; KRAS_G12C; PIK3CA/PTEN WT; single agent, 3 days, mean ± std
Excerpt: as §1, §2, §3

SW837 = test: Cell growth inhibition assay (Cell Titer Glo), SW837; type: cell-based; settings: Homo sapiens, 72 h; SW837 colon; KRAS_G12C; PIK3CA/PTEN WT; single agent, 3 days, mean ± std
Excerpt: as §1, §2, §3

| SMILES | IC50 (KM12) [nM] | IC50 (Calu6) [nM] | IC50 (HCC827) [µM] | IC50 (NCI-H1355) [µM] | IC50 (SW1463) [µM] | IC50 (NCI-H1792) [µM] | IC50 (SW480) [nM] | IC50 (SW1417) [nM] | IC50 (MDA-MB-175-VII) [nM] | IC50 (Colo-205) [nM] | IC50 (T84) [nM] | IC50 (SW1573) [µM] | IC50 (LS-1034) [nM] | IC50 (COR-L23) [nM] | IC50 (A427) [nM] | IC50 (human lung tumor lines) [nM] | IC50 (HOP62) [µM] | IC50 (RKO) [nM] | IC50 (CaLu3) [nM] | IC50 (SW900) [nM] | also measured |
| --- | --- | --- | --- | --- | --- | --- | --- | --- | --- | --- | --- | --- | --- | --- | --- | --- | --- | --- | --- | --- | --- |
| CC(=O)Nc1cccc(-n2c(=O)n(C3CC3)c(=O)c3c(Nc4ccc(I)cc4F)n(C)c(=O)c(C)c32)c1 [Compound A, N-{3-[3-cyclopropyl-5-(2-fluoro-4-iodo-phenylamino)-6,8-dimethyl-2,4,7-trioxo-3,4,6,7-tetrahydro-2H-pyrido[4,3-d]pyrimidin-1-yl]phenyl}acetamide] | 23 ± 21 | 4 ± 3 | > 1 | 0.052 ± 0.01 | 0.004 ± 0.003 | 0.053 ± 0.016 | 37 ± 15 | 3 ± 1 | 96 ± 33 | 1 | 61 ± 31 | > 1 | 5 | 329 ± 237 | 22 ± 3 | 2 to 329 | > 1 | 18 ± 1 | 158 ± 19 | 127 | IC50 (NCI-H727): 2 nM; sensitivity as a single agent (in words) (MDA-MB-175-VII; MDA-MB-175-VII cells): sensitive; IC50 (human colon tumor lines; LS-1034, Colo-205, SW1463, HT29, SW480 and SW1417, read-out: IC50, single agent): ≤ 37 nM; IC50 (human colon tumor lines; colon lines depicted in Table 1, range over the lines, read-out: IC50s, single agent): 1 to 632 nM; IC50 (MV522): 2 ± 1 nM; IC50 (HCT-8): 55 ± 11 nM; IC50 (HT-29): 2 ± 1 nM; IC50 (EFM-19): > 1000 nM; IC50 (NCI-H1155): > 1000 nM; IC50 (NCI-H508): 23 ± 2 nM |
| Cn1ncc(Cl)c1-c1cc(C(=O)N[C@H](CN)Cc2cccc(F)c2)sc1Cl [Compound B, N-{(1S)-2-amino-1-[(3-fluorophenyl)methyl]ethyl}-5-chloro-4-(4-chloro-1-methyl-1H-pyrazol-5-yl)-2-thiophenecarboxamide] | 2250 ± 1180 | 2150 ± 890 | > 8 | 6.69 ± 3.49 | 9.72 ± 0.139 | 7.31 ± 2.87 | > 10000 | > 10000 | < 1000 | 2570 ± 137 | > 10000 | > 8 | 4340 ± 1770 | 5370 ± 3520 | > 8000 | 2000 to 7000 | > 10 | 1810 ± 674 | > 8000 | > 10000 | IC50 (DLD1): > 10 µM; IC50 (NCI-H23): 7.12 ± 3.8 µM; IC50 (SW837): > 10 µM; IC50 (human colon tumor lines; a subset of these colon cell lines (modest sensitivity), range over the lines, read-out: IC50 values, single agent): 500 to 5000 nM |

— patent publication US20160143913A1, “COMBINATION” (Novartis AG, priority 2009, published 2016)
